Data set [1] deals with T1, PTP-1B (Homo sapiens, UniProt P18031).
T1 construct: PTP-1B (purified, 1 mg/mL) as a 1:250 dilution
T1 sequence (P18031 1-321 limits assumed): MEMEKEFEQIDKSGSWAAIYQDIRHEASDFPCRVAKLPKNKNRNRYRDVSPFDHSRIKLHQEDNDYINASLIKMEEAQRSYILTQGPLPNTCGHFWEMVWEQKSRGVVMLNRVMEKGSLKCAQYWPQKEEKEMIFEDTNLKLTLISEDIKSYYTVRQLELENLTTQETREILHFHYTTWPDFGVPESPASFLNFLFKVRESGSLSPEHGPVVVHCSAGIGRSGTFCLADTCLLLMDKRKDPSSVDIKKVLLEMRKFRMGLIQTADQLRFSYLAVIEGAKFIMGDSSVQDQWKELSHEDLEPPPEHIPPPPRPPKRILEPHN
In words: pNPP tyrosine phosphatase inhibition assay, PTP-1B. The format is biochemical. Particulars: pNPP assay, PTP-1B; read-out: Activity Class (IC50 ranges). Summed up:
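Test compounds were screened at two final levels, 31.3 and 10 µM, against 4 µg/mL purified PTP-1B. The substrate was 10 mM p-nitrophenyl phosphate, with incubation for 10 min at 30°C before a K2CO3 quench. Activity was taken from A405.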

For `O=P(O)(O)C(F)(F)c1ccc(CN(Cc2ccc(C(F)(F)P(=O)(O)O)cc2)S(=O)(=O)c2ccccc2Cl)cc1` [Compound 5, {[4-({(2-Chloro-benzenesulfonyl)-[4-(difluoro-phosphono-methyl)-benzyl]-amino}-methyl)-phenyl]-difluoro-methyl}-phosphonic acid], the melting point (commonly the temperature, or range, at which the solid turns liquid) lay in the range of 170 to 172 °C. Moreover, in data set [1], the IC50 (in general, the point on the concentration scale where inhibition reaches its midpoint) fell in the range of 100 to 249 nM.
On the same counts, the results for `O=C(OCc1ccccc1)N(Cc1ccc(C(F)(F)P(=O)(O)O)cc1)Cc1ccc(C(F)(F)P(=O)(O)O)cc1` [Compound 17, {[4-({Benzyloxycarbonyl-[4-(difluoro-phosphono-methyl)-benzyl]-amino}-methyl)-phenyl]-difluoro-methyl}-phosphonic acid] are 106 to 108 °C and 2500 to 25000 nM.
On the same counts, the results for `O=P(O)(O)C(F)(F)c1ccc(CN(Cc2ccc(-c3ccccc3)cc2)Cc2ccc(C(F)(F)P(=O)(O)O)cc2)cc1` [Compound 20, {[4-({Biphenyl-4-ylmethyl-[4-(difluoro-phosphono-methyl)-benzyl]-amino}-methyl)-phenyl]-difluoro-methyl}-phosphonic acid] are 125 to 128 °C and 2500 to 25000 nM.
On the same counts, the results for `COc1ccccc1S(=O)(=O)N(Cc1ccc(NC(=O)C(=O)O)cc1)Cc1ccc(NC(=O)C(=O)O)cc1` [Compound 57, N-[4-({(2-Methoxy-benzenesulfonyl)-[4-(oxalyl-amino)-benzyl]-amino}-methyl)-phenyl]-oxalamic acid] are 187 to 189 °C (dec.) and greater than 25000 nM.
In the case of `CN(Cc1ccc(C(F)(F)P(=O)(O)O)cc1)Cc1ccc(C(F)(F)P(=O)(O)O)cc1` [Compound 15, {[4-({[4-(Difluoro-phosphono-methyl)-benzyl]-methyl-amino}-methyl)-phenyl]-difluoro-methyl}-phosphonic acid], the melting point was in the range of 268 to 270 °C. For the same molecule, the IC50 in data set [1] is greater than 25000 nM.
On the same counts, the results for `O=C(c1ccccc1)N(Cc1ccc(C(F)(F)P(=O)(O)O)cc1)Cc1ccc(C(F)(F)P(=O)(O)O)cc1` [Compound 11, {[4-({Benzoyl-[4-(difluoro-phosphono-methyl)-benzyl]-amino}-methyl)-phenyl]-difluoro-methyl}-phosphonic acid] are 87 to 89 °C and 2500 to 25000 nM.
On the same counts, the results for `O=C(NCc1ccccc1)N(Cc1ccc(C(F)(F)P(=O)(O)O)cc1)Cc1ccc(C(F)(F)P(=O)(O)O)cc1` [Compound 13, [(4-{3-Benzyl-1-[4-(difluoro-phosphono-methyl)-benzyl]-ureidomethyl}-phenyl)-difluoro-methyl]-phosphonic acid] are 124 to 127 °C and greater than 25000 nM.
On the same counts, the results for `O=C(O)c1ccc(CN(Cc2ccc(C(F)(F)P(=O)(O)O)c(Br)c2)S(=O)(=O)c2ccccc2)cc1` [Compound 31, 4-({Benzenesulfonyl-[3-bromo-4-(difluoro-phosphono-methyl)-benzyl]-amino}-methyl)-benzoic acid] are 160 to 162 °C and 100 to 249 nM.
On to `O=P(O)(O)C(F)(F)c1ccc(CN(Cc2ccc(C(F)(F)P(=O)(O)O)cc2)S(=O)(=O)CCc2ccccc2)cc1` [Compound 9, [(4-{[[4-(Difluoro-phosphono-methyl)-benzyl]-(2-phenyl-ethanesulfonyl)-amino]-methyl}-phenyl)-difluoro-methyl]-phosphonic acid], for which the melting point is 181 to 183 °C. In addition, the IC50 in data set [1] fell in the range of 250 to 499 nM.
`COc1ccc(S(=O)(=O)N(Cc2ccc(C(F)(F)P(=O)(O)O)cc2)Cc2ccc(C(F)(F)P(=O)(O)O)cc2)cc1` [Compound 89, [(4-{[[4-(Difluoro-phosphono-methyl)-benzyl]-(4-methoxy-benzenesulfonyl)-amino]-methyl}-phenyl)-difluoro-methyl]-phosphonic acid]: in data set [1], the IC50 was in the range of 250 to 499 nM.
Still for that read-out and setting: for “(4-{[(4-Cyano-benzyl)-(2-methoxy-benzenesulfonyl)-amino]-methyl}-phenyl)-difluoro-acetic acid [Compound 130]” the value was greater than 25000 nM; for `COc1ccccc1S(=O)(=O)N(Cc1ccc(C#N)cc1)Cc1ccc(C(O)C(O)C(=O)O)c(Br)c1` (stereo not drawn) [Compound 123, 1,2-dihydroxy-3-{2-Bromo-4-[N-(4-cyanobenzyl)-N-(2-methoxy-benzenesulfonyl)aminomethyl]-phenyl}-propionic acid], greater than 25000 nM.
Turning to `COc1ccccc1S(=O)(=O)N(Cc1ccc(C(O)C(=O)O)cc1)Cc1ccc(S(C)(=O)=O)cc1` (stereo not drawn) [Compound 127, Hydroxy-(4-{[(4-methanesulfonyl-benzyl)-(2-methoxy-benzenesulfonyl)-amino]-methyl}-phenyl)-acetic acid], the IC50 in data set [1] is greater than 25000 nM.
Still for that read-out and setting: as for `CCOC(=O)c1cc(-c2ccc(CN(Cc3ccc(C(F)(F)P(=O)(O)O)c(Cl)c3)S(=O)(=O)c3ccccc3OC)cc2)ccc1Cl` [Compound 175, 4-Chloro-4′-{[[3-chloro-4-(difluoro-phosphono-methyl)-benzyl]-(2-methoxy-benzenesulfonyl)-amino]-methyl}-biphenyl-3-carboxylic acid ethyl ester], the figure is 250 to 499 nM.
On the same count and under the same terms, for “{[4-(difluorophosphonomethyl)-3-chlorophenyl]methyl}[(2 methoxyphenyl)sulfonyl]{[2-(3-methylthiophenyl)phenyl]methyl}amine [Compound 206]” the value was less than 99 nM.
For `COc1ccccc1S(=O)(=O)N(Cc1ccc(C(F)(F)P(=O)(O)O)c(Cl)c1)Cc1ccccc1OCCCC(C)C` [Compound 215, {[2-Chloro-4-({(2-methoxy-benzenesulfonyl)-[2-(4-methyl-pentyloxy)-benzyl]-amino}-methyl)-phenyl]-difluoro-methyl}-phosphonic acid], the concentration for half-maximal inhibition (IC50) in data set [1] lay within 250 to 499 nM.
For `O=P(O)(O)C(F)(F)c1ccc(CN(Cc2ccc(C(F)(F)P(=O)(O)O)cc2)S(=O)(=O)c2ccccc2C(F)(F)F)cc1` [Compound 90, [(4-{[[4-(Difluoro-phosphono-methyl)-benzyl]-(2-trifluoromethyl-benzenesulfonyl)-amino]-methyl}-phenyl)-difluoro-methyl]-phosphonic acid], the IC50 in data set [1] lay within 250 to 499 nM.
In the case of `O=C(O)CCc1ccc(S(=O)(=O)N(Cc2ccc(Cl)c(Cl)c2)Cc2ccc(C(F)(F)P(=O)(O)O)c(Br)c2)cc1` [Compound 122, 3-{4-[[3-Bromo-4-(difluoro-phosphono-methyl)-benzyl]-(3,4-dichloro-benzyl)-sulfamoyl]-phenyl}-propionic acid], the IC50 in data set [1] lay within 100 to 249 nM.
The same measure, in the same setting: as for `COc1ccccc1S(=O)(=O)N(Cc1cccc(-c2ccc(S(C)(=O)=O)cc2)c1)Cc1ccc(C(F)(F)P(=O)(O)O)c(Cl)c1` [Compound 143, [(2-Chloro-4-{[(4′-methanesulfonyl-biphenyl-3-ylmethyl)-(2-methoxy-benzenesulfonyl)-amino]-methyl}-phenyl)-difluoro-methyl]-phosphonic acid], the figure is 250 to 499 nM; as for `COc1ccccc1S(=O)(=O)N(Cc1ccc(C=CC(=O)O)cc1)Cc1ccc(C=CC(=O)O)cc1` [Compound 132, 3-(4-{[[4-(2-Carboxy-vinyl)-benzyl]-(2-methoxy-benzenesulfonyl)-amino]-methyl}-phenyl)-acrylic acid], greater than 25000 nM; as for `COc1ccccc1S(=O)(=O)N(Cc1ccc(C(F)(F)P(=O)(O)O)c(Cl)c1)C(C)c1ccccc1` (stereo not drawn) [Compound 166, [(2-Chloro-4-{[(2-methoxy-benzenesulfonyl)-(1-phenyl-ethyl)-amino]-methyl}-phenyl)-difluoro-methyl]-phosphonic acid], 2500 to 25000 nM.
On the same count and under the same terms, for “{[4-(difluorophosphonomethyl)-3-chlorophenyl]methyl}[(2-(2,3-dihydrobenzo[b]furan-5-yl)phenyl)methyl][(2-methoxyphenyl)sulfonyl]amine [Compound 204]” the value was less than 99 nM; for `COC(=O)c1ccc(CN(Cc2ccc(C(F)(F)P(=O)(O)O)c(Br)c2)S(=O)(=O)c2ccccc2)cc1` [Compound 30, 4-({Benzenesulfonyl-[3-bromo-4-(difluoro-phosphono-methyl)-benzyl]-amino}-methyl)-benzoic acid methyl ester], 250 to 499 nM.
The same measure, in the same setting: for `COC(=O)c1cccc(-c2ccc(CN(Cc3ccc(C(F)(F)P(=O)(O)O)c(Cl)c3)S(=O)(=O)c3ccccc3OC)cc2)c1` [Compound 145, 4′-{[[3-Chloro-4-(difluoro-phosphono-methyl)-benzyl]-(2-methoxy-benzenesulfonyl)-amino]-methyl}-biphenyl-3-carboxylic acid methyl ester] the value was 250 to 499 nM.
